# Earlier results, collected in US7927486B2, “Polymer modified porous substrate for solid phase extraction” (priority 2005, dated 2011).
smiles,measurement,value
CCCCNCC(O)c1ccc(O)cc1.CCCCNCC(O)c1ccc(O)cc1.O=S(=O)(O)O (stereo not shown) [Bamathan hemisulfate],Log P,1.29
